Data set [1] has as its system TM cells on galectin-8 coated wells. The settings on record: cited from earlier work.
For data set [2], the system named is endothelial cell (EC) spheroids (HUVEC). The format is cell-based. The protocol:
Methyl cellulose powder (6 g) was autoclaved with stirring using a magnetic bar in a 500 mL bottle. The powder was dissolved in 250 mL of DMEM medium at 60° C. with stirring for 30 minutes, and then 250 mL DMEM at room temperature was added and the mixture was stirred for two hours at 4° C. The resulting mixture was then aliquoted into 50 mL cylindrical tubes and centrifuged (6170 revolutions per minute) for two hours at room temperature to remove debris interfering with spheroid formation. The clear supernatant was collected from the centrifuged tubes.
Endothelial cells (EC) were cultured in containers and were detached from the container surfaces with 0.25% trypsin. The pH of the trypsinized EC cells was neutralized with DMEM. Spheroid solution was prepared in tubes by combining 3.75 mL of methylcellulose, 1.75 mL FBS, 17.5 μl pen/strep, and […] endothelial cells, and adding DMEM to bring the total volume to 17.5 mL. The spheroid solution was mixed by inverting tubes, and 150 μl aliquots were added to each well of a 96 well plate using a multichannel pippettor and wide mouth tips. Spheroids were settled and were incubated for 24 hours at 37° C. in 5% CO2.
Each 96 well plate yielded spheroids sufficient for four wells of a 24 well plate. The collagen solution was prepared using 2.3 mL (3.9 mg/mL) collagen type 1, 400 μl 10×M199 medium, 200 μl FBS, and 1.1 mL water. The collagen solution was neutralized with sodium hydroxide using a color pH indicator. The methyl cellulose solution (4.5 mL) was combined with 1.5 mL DMEM and warmed to 37° C. in a water bath. EC spheroids were collected using a wide mouth pipette and centrifuged (700 revolutions per minutes) for three minutes at room temperature.
The resulting supernatant was removed, and two mL of methyl cellulose solution were added to the pellet. Neutralized collagen solution (2 mL) was added to the mixture, and mixed using a pipette carefully to avoid bubble formation.
An aliquot (1 mL) of the mixed collagen solution was added to four wells of a 24 well plate, and the plate was incubated at 37 C 5% CO2 for 30 minutes to polymerize the collagen. […] Control collagen samples were treated with 100 μl of EBM-2 and 25 ng/mL VEGF in EBM-2.
See Meyer et al. 2003 J Biol Chem. 278(18): 16347-55. Representative images of the incubated samples were obtained and the cumulative length in arbitrary units of the endothelial cell sprouts was determined by ImageJ processing and analysis procedures. The data was analyzed by Student's t-test (Table 2).

The test system of data set [3] is HUVEC spheroids. The experiment in a line: VEGF-A-induced HUVEC spheroid sprouting in type I collagen gels. The settings on record: VEGF-A 100 ng/ml; TD139 0.1, 1, 5 and 10 μM; 24 hours. The format is cell-based, human. The protocol: HUVEC spheroids were prepared and seeded into type I collagen gels. […] Control collagen samples were treated with 100 μl of EBM-2 and 25 ng/mL VEGF in EBM-2. […] After a 24 hour incubation, spheroids were stained with calcein AM dye and photographed by a fluorescent microscope. Cumulative sprout lengths for HUVEC in gels were quantified by ImageJ.
HUVEC spheroids were prepared as described in examples herein, and the spheroids were seeded into type I collagen gels. […] Control spheroids were treated with neither VEGF-A nor TD139. After 24 hours of treatment, spheroids were stained with calcein AM, a cell-permeant dye that indicates cell viability in eukaryotic cells (Invitrogen Inc.), and the spheroids were photographed by a fluorescent microscope. Cumulative sprout lengths were quantified by ImageJ.

Data set [4] concerns HUVEC. Briefly: HUVEC viability by calcein AM and WST-1. The format is cell-based, human. Conditions: three hours treatment; TD139 5 μM, Triton X-100 0.1%. The protocol:
The cell viabilities of the treated HUVEC and control HUVEC were determined with each of calcein AM and WST-1, two systems used to determine cell viability. Calcein AM was added to a group of treated HUVEC, which were incubated for 30 minutes (FIG. 14A). Another group of treated HUVEC were incubated for two hours with WST-1, a tetrazolium salt used for determining cell proliferation and is an indicator or cell viability (FIG. 14B). Data are plotted with mean±SEM and analyzed with one-way ANOVA. ***P<0.001 vs control. Fluorescence emission was detected by a spectrophotometer for each treated group contacted with either calcein AM or WST-1.

Data set [5] concerns HUVEC. Briefly: VEGF-A-induced endothelial cell migration (chemotaxis chamber). Conditions: three hours. The format is cell-based, human. How it is done: FIG. 13B is a bar graph showing migration distance (migration index, ordinate) of HUVEC cells treated with (abscissa) […] as in FIG. 13A. HUVECs were serum starved overnight, detached with proteolytic and collagenolytic enzyme product Accutase™ (Millipore Inc.), resuspended in 1% FBS/M199 and then added to the upper chamber of a migration testing system. […] After three hours of incubation, HUVECs that migrated to lower side of the membrane were counted.
HUVEC were incubated without serum overnight, detached with Accutase, re-suspended in 1% FBS/M199 and added in an upper chamber separated from a bottom chamber by a membrane. […] Control HUVEC were treated with neither VEGF-A nor TD139.
Data were plotted as mean±SEM and analyzed with one-way ANOVA. *P<0.05 vs control; ***P<0.001 vs control; ^###P<0.001 vs VEGF-A.

Data set [6] concerns mouse corneas. Briefly: Silver nitrate cautery-induced corneal neovascularization, TD139. The format is in vivo. The settings on record: TD139 325 ng sub-conjunctival every other day, 50 μM eye drops daily; day five after cautery; control about 40%. From the text: FIG. 11A is a drawing of an experimental regimen for drug administration in murine subjects strain C57B/6L. […] Silver nitrate was applied on day zero to cauterize the eyes of the subjects. Mice were sacrificed on day five, and flat mounts of corneas were stained with anti-CD31 to visualize blood vessels. Data shown in FIG. 11 B-C were from subjects treated as described in FIG. 11A.
Neovascularization in the eye was induced in mouse corneas by cauterization using silver nitrate. […] Control subjects were sub-conjunctivally injected with vehicle only (PBS containing 0.5% DMSO only).
After five days of either sub-conjunctival injection treatment or eye drop treatment, subjects were sacrificed, and flat mounts of corneas were excised, photographed, and stained with anti-CD31 to visualize blood vessels (FIG. 11B, magnification is ×100). The density of blood vessels covering the whole cornea was quantified by ImageJ and was analyzed with Student's t test (FIG. 11C).

Data set [7] relates to VEGFR2. Briefly: VEGFR2 expression in HUVEC by western blot. The format is cell-based, human. Conditions: 10 μM TD139, six hours. The protocol: Cell lysates were analyzed by electrophoresis in 4-20% SDS-PAGE gels. The gels were transferred to western blot membranes, and were probed with anti-VEGFR-2 antibody (FIG. 15 top row) or β-actin antibody (FIG. 15 bottom row).
Control HUVEC were not treated with TD139. Cell lysates were analyzed using gel electrophoresis (4-20% SDS-PAGE gels), and the membrane blots were probed with either anti-VEGFR-2 antibodies or β-actin antibodies.
(Immunoblotting shows a protein as a band on a membrane.)

Data set [8] has as its system mouse retinas. Briefly: Alkali (sodium hydroxide) model, retinal gliosis (GFAP western blot). Conditions: 10 μl of 50 mM TD139 subconjunctival daily for 14 days; vs PBS.
Procedure: Corneas of murine subjects were contacted with sodium hydroxide. […] Control subjects were injected subconjunctively with PBS control vehicle only. Subjects were sacrificed by ketamine and xylazine on day 14 post surgery. […] Aliquots of retinal protein (30 μg) from lysates, or a control β-actin material were loaded to gels and transferred onto nitrocellulose membranes. Blots were probed overnight at 4° C. with rabbit anti mouse antibody specific for glial fibrillary acidic protein (GFAP; 50,000 dilution; Abcam Inc.; FIG. 18 top row), or with a control antibody specific for β-actin. […] Control blots were probed with rabbit antibody specific for β-actin (FIG. 18 bottom row). The probes were washed and were incubated with goat anti rabbit IRDye 800CW antibody (1:10,000 dilution; LI-Cor Biosciences). Membranes were scanned and quantified using an Odessey imaging system (Li-Cor Biosciences).
C57BJ/6 mice were anesthetized by intraperiteoneal injection of ketamine and xylazine mixture. Corneas were topically anesthetized by application of proparacain eye drop. […]
Subjects were sacrificed on day fourteen after alkalisurgery using a mixture of ketamine and xylazine. […] The membranes were washed and incubated with goat anti rabbit IRDye 800CW antibody (1:10,000; Li-Cor Inc.), the membranes were scanned and quantified with Odessey imaging system (Li-Cor Inc.). […]
Data set [9] addresses recombinant galectin-3 (Homo sapiens, UniProt P17931). The experiment in a line: Microtiter plate binding assay with galectin receptor-HRP conjugate, galectin-3. The settings on record: plate coated with recombinant galectin-3.
Procedure: Microtiter plate wells were coated with recombinant galectin-1 or galectin-3 (10 μg/ml, 50 μl/well), and then washed with wash solutions containing PBS and detergent. The wells were blocked with BSA, and washed with wash solution/buffer. […] Control wells included PBS only. An amount of galectin receptor-HRP conjugate (100 μL/well, 1 mg/mL) specific for either galectin-1 or galectin-3 was added to the respective wells. The wells were incubated for one hour and then washed with buffer at room temperature. The horse-radish peroxidase enzyme reaction was performed using a TMB-peroxidase substrate kit (BioRad Inc.). The reaction was stopped after one hour by addition of 1N sulfuric acid (100 μL/well) and the optical density was read at 450 nm.
Data set [10] deals with recombinant galectin-1 (Homo sapiens, UniProt P09382). The experiment in a line: Microtiter plate binding assay with galectin receptor-HRP conjugate, galectin-1. Conditions: plate coated with recombinant galectin-1.
Sequence of recombinant galectin-1 (P09382 whole entry): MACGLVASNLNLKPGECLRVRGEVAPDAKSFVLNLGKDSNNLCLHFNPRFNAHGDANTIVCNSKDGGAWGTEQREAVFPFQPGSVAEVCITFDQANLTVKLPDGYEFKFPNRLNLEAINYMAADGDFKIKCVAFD
The subject of data set [11] is mouse corneas. The experiment in a line: Alkali (sodium hydroxide) model of corneal fibrosis. Conditions: vs PBS.
Procedure: C57BJ/6 mice were anesthetized by intraperiteoneal injection of a mixture of ketamine and xylazine. Corneas of the subjects were topically anesthetized by applying an eye drop of proparacain. 1.5 μl drop of 0.15M sodium hydroxide was applied for one minute to the central cornea of each subject. Each eye was immediately washed extensively in PBS, and corneal epithelium and limbal epithelium were gently removed with an ALGEBRUSH™ optical device (Storz Ophthalmic Instruments, St. Louis, Mo.). Each cornea was covered with an antibiotic ointment. […] Control subjects were injected subconjunctivally with control vehicle PBS. Corneas were visualized and analyzed for opacity, and protein markers for fibrosis were quantified as described below.
Mice were sacrificed at day 14 post surgery using a mixture of ketamine and xylazine. Mouse corneas were dissected and lysed in ice-cold lysis buffer containing 5 mM NaF, 1 mM PMSF, 1 mM DTT, 20 mM HEPES, 1 mM EDTA, 400 mM NaCl, 1 mM EGTA, 0.1% NP-40, and a protease inhibitor cocktail product (Roche). Aliquots of corneal protein (20 μg) were loaded to each lane of a gel and transferred onto a nitrocellulose membrane. Blots were probed overnight at 4° C. with either a rabbit antibody specific for α-smooth muscle actin (10,000 dilution; Abcam Inc., Cambridge, England), or with a control antibody specific for β-actin. The blots were extensively washed and were incubated with goat anti rabbit IRDye 800CW antibody (1:10,000 dilution; LI-Cor Biosciences; Lincoln Nebr.). Membranes were scanned and quantified using an Odessey imaging system (Li-Cor Biosciences).
C57BJ/6 mice were anesthetized by intraperiteoneal injection of ketamine and xylazine mixture. […]
Subjects were sacrificed on day fourteen after alkalisurgery using a mixture of ketamine and xylazine. […] The membranes were washed and incubated with goat anti rabbit IRDye 800CW antibody (1:10,000; Li-Cor Inc.), the membranes were scanned and quantified with Odessey imaging system (Li-Cor Inc.).
SMA (smooth muscle actin) is a marker of corneal fibrosis. […] Opacity of the eye was scored on day 7 and day 14. […]
In data set [12] the target is T1, galectin-1 / VEGFR-2 (Homo sapiens, UniProt P09382).
T1 construct: host or cells: VEGFR-2: endogenous, HUVEC lysate
T1 sequence (P09382 whole entry): as above
Briefly: HUVEC lysate VEGFR-2 pull-down on galectin-1 agarose beads. The format is binding. Conditions: 0.1 M saccharide. From the text:
FIG. 12 is a photomicrograph of a western blot showing that galectin-1 and galectin-3 interacted with VEGFR-2. […] Control samples contained only HUVEC lysates or beads. Bound material was eluted with Laemmli sample buffer, added to 4-20% SDS-PAGE gels, and electrophoresed. Gels were transferred onto membrane blots, which was then probed with anti-VEGFR-2 antibody. VEGFR-2 antibody was observed bound to the HUVEC lysate control and not to the bead only control. […] Thus, the interaction between VEGFR-2 and galectin-1 and galectin-3 was observed herein to be carbohydrate-dependent.
Control HUVEC lysates were incubated with galectin-1 agarose beads or galectin-3 agarose beads only. The beads were rinsed to remove unbound material.
HUVEC lysate material bound to the beads was eluted with the Laemmli sample buffer and was analyzed using gel electrophoresis (4-20% SDS-PAGE gels). Following blocking, membrane blots were probed using anti-VEGFR-2 antibody (FIG. 12). […] Further, the VEGFR2 HUVEC lysate binding to the beads was […] for beads treated with sucrose, a noncompeting saccharide.

For data set [13], the target named is T2, galectin-3 / VEGFR-2 (Homo sapiens, UniProt P17931).
T2 construct: host or cells: VEGFR-2: endogenous, HUVEC lysate
T2 sequence (P17931 whole entry): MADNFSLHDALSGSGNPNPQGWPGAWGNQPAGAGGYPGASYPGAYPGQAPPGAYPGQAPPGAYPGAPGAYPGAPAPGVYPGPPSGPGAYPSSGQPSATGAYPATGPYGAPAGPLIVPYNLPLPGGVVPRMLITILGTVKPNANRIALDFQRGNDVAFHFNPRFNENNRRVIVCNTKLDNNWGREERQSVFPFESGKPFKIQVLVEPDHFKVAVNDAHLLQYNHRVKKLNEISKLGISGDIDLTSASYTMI
Briefly: HUVEC lysate VEGFR-2 pull-down on galectin-3 agarose beads. The format is binding. The settings on record: 0.1 M saccharide.

Values joined by “and” are separate entries in the source; they are usually repeats but may differ in a detail not shown here. Identical values can stand only once. “Also recorded” adds a separate entry of the source.

Data on seven compounds can be found in patent publication US20150320782A1, “Methods, compositions and kits for treating, modulating, or preventing ocular angiogenesis or fibrosis in a subject using a galectin protein inhibitor” (TUFTS UNIVERSITY, priority 2012, published 2015).

Sequence of recombinant galectin-3 (P17931 whole entry): as above

With `CC(=O)N[C@H]1[C@H]([C@H](O)[C@H](O)CO)O[C@@](O[C@H]2[C@@H](O)[C@@H](CO)O[C@@H](O[C@H]3[C@H](O)[C@@H](NC(C)=O)C(O)O[C@@H]3CO)[C@@H]2O)(C(=O)O)C[C@@H]1O` (stereo partly shown) [NeuAca2-3Galβ1-4GlcNAc], in data set [1], the “Spreading of TM cells on galectin-8 protein coated wells” value was “inhibited”.
Turning to `CC(=O)N[C@H]1[C@H]([C@H](O)[C@H](O)CO)O[C@](OC[C@H]2O[C@@H](O[C@H]3[C@H](O)[C@@H](NC(C)=O)C(O)O[C@@H]3CO)[C@H](O)[C@@H](O)[C@H]2O)(C(=O)O)C[C@@H]1O` (stereo partly shown) [NeuAca2-6Galβ1-4GlcNAc], in [1], the “Spreading of TM cells on galectin-8 protein coated wells” value is given as “no effect”.
For `OC[C@H]1O[C@@H](S[C@@H]2O[C@H](CO)[C@H](O)[C@H](n3cc(-c4cccc(F)c4)nn3)[C@H]2O)[C@H](O)[C@@H](n2cc(-c3cccc(F)c3)nn2)[C@H]1O` [TD139, bis-{3-deoxy-3-[4-(3-fluorophenyl)-1H-1,2,3-triazol-1-yl]-β-D-galactopyranosyl}sulfane], in data set [2] (10 μM TD139, compared to VEGF alone), the “Decrease of VEGF-mediated EC sprouting” value is recorded as “about one-third”. In addition, the “Reduction of the extent of VEGF-mediated sprouting” value in data set [2] (50 μM TD139) is “about two-thirds”. Also, the “VEGF-A-induced sprouting (cumulative sprout length)” value in data set [3] is “significantly inhibited”. Also, in [4], the “Calcein AM fluorescence (cell viability)” value is given as “comparable calcein AM fluorescence” and the “WST-1 signal (cell viability)” value was “comparable cell viability”. The “VEGF-A-induced chemotaxis and migration” value in [5] (TD139 1 to 5000 nM, dose-dependent) is on record as “significantly abrogated”. Moreover, the “Concentration as low as which VEGF-A-induced chemotaxis was significantly abrogated” value in data set [5] (VEGF-A 100 ng/mL) was determined as 1 nM. In [6], the “Density of blood vessels covering the cornea (percent area)” value is reported as 28%. Besides, in data set [7], the “Total protein expression of VEGFR2” value is listed as “little or no effect”. The “GFAP expression in retinal lysates” value in data set [8] is reported as “reduced expression of GFAP”. Also, the “Binding to galectin-3” value in data set [9] is “specifically bound”. Moreover, in [10], the “Binding to galectin-1” value is on record as “specifically bound”. Moreover, the “Corneal opacity (score 0-4)” value in data set [11] (10 μl of 50 mM TD139 subconjunctival daily for 14 days after alkali) was “area of opacity less than about the site of the pupil; also recorded: reduced corneal opacity”. In data set [11] (10 μl of 50 mM TD139 subconjunctival daily for 14 days), the “Reduction of α-SMA (smooth muscle actin) expression in corneal lysates” value was 30%.
With `OC[C@H]1O[C@@H](O[C@H]2[C@H](O)[C@@H](O)C(O)O[C@@H]2CO)[C@H](O)[C@@H](O)[C@H]1O` (stereo partly shown) [lactose], the “Inhibition of VEGFR-2 binding to galectin-1 beads” value in data set [12] is reported as “inhibited”. Also, the “Adhesion of TM cells to galectin-8 coated wells” value in [1] is given as “inhibited or prevented”.
Turning to `OC[C@H]1O[C@@](CO)(O[C@H]2O[C@H](CO)[C@@H](O)[C@H](O)[C@H]2O)[C@@H](O)[C@@H]1O` [sucrose], in data set [12], the “Inhibition of VEGFR-2 binding to galectin-1 beads” value is “not inhibited”. For the same compound, the “Inhibition of VEGFR-2 binding to galectin-3 beads” value in data set [13] is “not inhibited”. In addition, the “Adhesion of TM cells to galectin-8 coated wells” value in data set [1] is listed as “not inhibited”.
Turning to Triton™ X-100, in data set [4], the “Calcein AM fluorescence (cell viability)” value is listed as “reduced fluorescence” and the “WST-1 signal (cell viability)” value is on record as “reduced WST-1 fluorescence”.
For the compound VEGF, in [2] (VEGF 25 ng/mL only), the “Fold change in capillary sprouting of EC over control cells not contracted with VEGF and inhibitor” value is 650 fold and 921 fold and 604 fold and 800 fold; the “Formation of endothelial cell sprouts compared to medium only” value is listed as “four-fold”.
